The subject of assay [1] is Aspergillus fumigatus. The assay is described as follows: Antifungal activity against Aspergillus fumigatus incubated for 72 hrs. It is filed as functional.
Assay [2] deals with Candida albicans. The assay can be described thus: Antifungal activity against Candida albicans 124 incubated for 48 hrs. It is filed as functional.
Assay [3] addresses Growth hormone secretagogue receptor type 1 (Rattus norvegicus, UniProt O08725). The assay can be described thus: Agonist activity at GHSR in Wistar rat pituitary gland cells assessed as induction of GH release by RIA. It is filed as tissue-based, Pituitary gland cell.
Assay [4] in a line: Displacement of N-[3H]ethyladenosin-5'-uronamide from adenosine receptor A2 in rat striatal membranes by liquid scintillation counting method. The class given is cell membranes, Striatum, Membrane.
A short description of assay [5]: Selectivity ratio of Ki for Displacement of N-[3H]ethyladenosin-5'-uronamide from adenosine receptor A2 in rat striatal membranes to Ki for Displacement of N6-[3H]cyclohexyladenosine from adenosine receptor A1 in guinea pig forebrain membranes. The class given is cell membranes.
Assay [6] concerns the target Cholecystokinin(CCK) A/B (Homo sapiens) (UniProt P32239+P32238). The assay can be described thus: Selectivity index, ratio of IC50 for human Cholecystokinin B receptor expressed in CHO-K1 cells to IC50 for human Cholecystokinin A receptor expressed in CHO-K1 cells. The class given is cell-based.

Structures are written as SMILES. ≈ marks a conversion by molar mass, not a printed value.

Cholecystokinin(CCK) A/B (Homo sapiens), sequence (P32238 whole entry, looked up): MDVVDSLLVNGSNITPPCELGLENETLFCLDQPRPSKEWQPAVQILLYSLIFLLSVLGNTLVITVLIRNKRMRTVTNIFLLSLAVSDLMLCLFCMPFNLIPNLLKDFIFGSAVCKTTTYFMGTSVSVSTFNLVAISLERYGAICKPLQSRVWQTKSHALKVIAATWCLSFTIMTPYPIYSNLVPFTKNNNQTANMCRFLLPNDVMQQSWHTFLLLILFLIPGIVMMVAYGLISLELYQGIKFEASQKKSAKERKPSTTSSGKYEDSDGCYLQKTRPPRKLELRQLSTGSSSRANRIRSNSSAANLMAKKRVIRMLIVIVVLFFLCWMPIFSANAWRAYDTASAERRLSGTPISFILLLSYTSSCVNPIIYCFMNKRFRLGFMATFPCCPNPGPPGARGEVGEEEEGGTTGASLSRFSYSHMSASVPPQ
Cholecystokinin(CCK) A/B (Homo sapiens), sequence (P32239 whole entry, looked up): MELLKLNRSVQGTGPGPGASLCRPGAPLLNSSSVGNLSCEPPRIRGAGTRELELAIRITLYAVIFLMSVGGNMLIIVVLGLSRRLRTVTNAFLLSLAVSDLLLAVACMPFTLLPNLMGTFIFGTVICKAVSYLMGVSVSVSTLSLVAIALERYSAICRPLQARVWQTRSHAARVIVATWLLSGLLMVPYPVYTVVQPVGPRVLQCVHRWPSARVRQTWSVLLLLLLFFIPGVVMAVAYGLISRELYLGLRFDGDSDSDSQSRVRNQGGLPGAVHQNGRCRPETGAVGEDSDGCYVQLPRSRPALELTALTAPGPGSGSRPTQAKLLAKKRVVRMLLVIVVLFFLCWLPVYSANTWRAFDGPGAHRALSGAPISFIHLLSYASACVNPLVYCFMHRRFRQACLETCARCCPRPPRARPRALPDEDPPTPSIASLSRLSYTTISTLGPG
Growth hormone secretagogue receptor type 1, sequence (O08725 whole entry): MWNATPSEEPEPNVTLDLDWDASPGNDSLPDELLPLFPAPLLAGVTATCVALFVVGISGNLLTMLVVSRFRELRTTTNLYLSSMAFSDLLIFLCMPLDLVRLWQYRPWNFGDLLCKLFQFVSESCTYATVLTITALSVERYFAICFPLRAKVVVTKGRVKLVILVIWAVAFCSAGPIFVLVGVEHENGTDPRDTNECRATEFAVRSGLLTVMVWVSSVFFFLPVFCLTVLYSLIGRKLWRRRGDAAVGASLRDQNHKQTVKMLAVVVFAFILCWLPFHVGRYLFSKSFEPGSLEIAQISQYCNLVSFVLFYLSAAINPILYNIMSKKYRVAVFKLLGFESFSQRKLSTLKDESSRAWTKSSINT

By MIC is commonly meant the smallest concentration in the dilution series that meets the test's criterion for growth inhibition. A lower MIC goes with greater potency. With `CN(Cc1ccc(C(C)(C)c2ccccc2)cc1)Cc1cccc2ccccc12`, the MIC in assay [1] was 0.1 µg/mL (≈ 0.263 µM); in assay [2], 1.56 µg/mL (≈ 4.11 µM).
By EC50 is commonly meant the midpoint of the concentration-response curve. For the molecule `O=C(NC(Cc1c[nH]c2ccccc12)C(=O)N1CCC2(CCc3ccccc32)CC1)NC1CN2CCC1CC2` (centres undefined) [SPIROPIPERIDINE], the EC50 in assay [3] turned out to be 0.05 µM.
For orientation: Ki means a dissociation constant, usually derived from enzyme kinetics or from competition with a known ligand. In assay [4], `CCCn1c(=O)c2[nH]c(C3CCCC3)nc2n(CCC)c1=O` [1,3-DIPROPYL-8-CYCLOPENTYLXANTHINE [DPCPX]] showed a Ki of 0.59 µM. This lies in the sub-micromolar range.
`CCCn1c(=O)c2nc(C3C(C)(C)CCC3(C)C)[nH]c2n(CCC)c1=O` gave a Ki in assay [4] of over 100 µM. The Ratio Ki in assay [5] was over 4500.
Regarding `CN1N=C2CCN(C(=O)[C@@H](COCc3ccccc3)NC(=O)C(C)(C)N)C[C@@]2(Cc2ccccc2)C1=O` [CAPROMORELIN], the concentration for a half-maximal effect (EC50) in assay [3] came out at 0.003 µM.
With `CN(Cc1ccc(C2(c3ccccc3)CC2)cc1)Cc1cccc2ccccc12`, the MIC in assay [1] was 1.56 µg/mL (≈ 4.13 µM); in assay [2] it was 3.13 µg/mL (≈ 8.29 µM).
For `CC(C)N(C(=O)CN1C(=O)C(C)(NC(=O)Nc2ccccc2)C(=O)N(c2ccccc2)c2ccccc21)c1ccccc1` (centres undefined), the Ratio IC50 in assay [6] was found to be 0.2.
In the case of `CC(C)N(C(=O)CN1C(=O)C(CC(=O)Nc2ccccc2)C(=O)N(c2ccccc2)c2ccccc21)c1ccccc1` (centres undefined), the Ratio IC50 in assay [6] was found to be 5.
Same read-out and setting: under `CC(C)N(C(=O)CN1C(=O)C(C)(CC(=O)Nc2ccccc2)C(=O)N(c2ccccc2)c2ccccc21)c1ccccc1` (centres undefined) stands 110.
With `CN(Cc1ccc(Cc2ccccc2)cc1)Cc1cccc2ccccc12`, the minimal inhibitory concentration (MIC) in assay [1] and in assay [2] was over 100 µg/mL in each case.

For the origin of these results see ChEMBL document CHEMBL4680279, “Opportunities for Tapping into Three-Dimensional Chemical Space through a Quaternary Carbon” (J Med Chem, 2020).
